Measured values: PMC2360155, “Novel retinoic acid metabolism blocking agents have potent inhibitory activities on human breast cancer cells and tumour growth” (British Journal of Cancer, 2007)

Key:
MDA-MB-231 cells = system: MDA-MB-231 cells; set-up: method as in Patel et al. (2004); details: inhibition of cell proliferation by 50%; ref Patel et al. (2004); read-out: Cellular IC50, MDA-MB-231; cited from earlier work
cyclin D1 = assay: Western blotting for cyclin D1 in MCF-7 cells; format: cell-based, human; details: 6 days (4HPR 4 days)
Method: At the end of the treatment, cells were scrapped and collected by washing with ice-cold PBS in a centrifuge tube. Cells were centrifuged at 2500 r.p.m. for 10 min, the pellet was again washed with ice-cold PBS and centrifuged. The cell pellet was then suspended in chilled cell lysis buffer (0.1 M Tris–HCl, 0.5% Triton X-100, protease inhibitor cocktail) and sonicated on ice for 10–15 s. The homogenate was kept on ice for 30 min and then centrifuged at 13 000 r.p.m. for 30 min. The supernatant was used as cell lysate. The cell lysates were stored at −80°C. Protein concentration of the cell lysates was determined using Bio-Rad protein assay reagents.
Protein lysates from MCF-7 and T47D cells were subjected to sodium dodecyl sulphate–polyacrylamide gel electrophoresis (SDS–PAGE) and immunoblotted for different proteins. […] Immunoreactive bands were visualised using the enhanced chemiluminescence detection reagents and analysis system (Amersham Bioscences) according to the manufacturer's instructions and quantified by densitometry using ImageQuant software version 5.
Figure 5 Western blotting of whole-cell lysates of treated MCF-7 and T47D cells for the expression of Cyclin D1. […] Numbers below the blot show fold decrease in expression of the protein as analysed by ImageQuant densitometry analysis. […]

MCF-7 cells [1] = assay: TUNEL apoptosis assay, MCF-7; format: cell-based, human; details: 5 μM; 6 days; control about 1.5%
Source text: (§1) The cells were rinsed with PBS and then the stained-labelled apoptotic cells were mounted using DAPI (diamidino-2-phenylindole 2HCl)-glycerol and visualised with a fluorescent microscope using two filters (1) for TUNEL stained cells, and (2) for DAPI stained cells, which represents all the cells (nuclei). Fluorescent microscope model was Nikon, Eclipse E400 and the software was SPOT advanced version 3.5.5 by Diagnostic Instruments Inc. (Sterling Heights, MI, USA).
(§2) Figure 6 Graphs showing apoptosis induced in (A) MCF-7 and (B) T47D cells as determined by TUNEL. […] TUNEL-stained apoptotic cells were counted against the DAPI stained cells to obtain percentage apoptosis. The experiments were repeated thrice with similar results. Error bars show s.e.m of three different fields of treated cells, statistically significant ^*P<0.01 and ^**P<0.001 vs control.

T47D cells [2] = assay: Cell cycle analysis by flow cytometry (PI), T47D; format: cell-based, human; details: 5 μM, 6 days (4-HPR 4 days)
Method: MCF-7 and T47D cells were plated in T-25 flasks and allowed to adhere for about 18 h. The cells were then synchronised by growing them in low-serum OPTI-MEM I medium for 2 days. […] After 6-day treatment, the cells were trypsinised, washed twice with PBS, centrifuged at 2500 r.p.m. to obtain a cell pellet. The cells (about 1–2 × 10^6) were fixed with 3 ml of 70% ethanol (by adding drop-wise and taking care that the cells are not clumped together). Cells were kept at −20°C until further analysis (at least overnight). Next, cells (∼1–2 × 10^6) were stained with 1 ml of propidium iodide (PI) (50 μg ml^−1)/RNase (100 μg ml^−1) solution and after about half an hour the fluorescence of stained nuclei (15 000 events) was analysed by flow cytometry (Becton Dickinson FACScan Instrument and quantification by Modfit LT version 3.1 software) with excitation wavelength of 488 nm. The percentage of G1, S, G2/M and sub-G1 (apoptotic cells) in the population of treated and untreated cells were determined.

T47D cells [3] = assay: TUNEL apoptosis assay, T47D; format: cell-based, human; details: 5 μM; 6 days; control about 1.5%
Source text: as §1, §2

MCF-7 cells [4] = system: MCF-7 cells; set-up: method as in Patel et al. (2004); details: inhibition of cell proliferation by 50%; ref Patel et al. (2004); read-out: Cellular IC50, MCF-7; cited from earlier work

## CC1=C(/C=C/C(C)=C/C=C/C(C)=C/C(=O)Nc2ccc(O)cc2)C(C)(C)CCC1 [Compound 4-HPR, 4-Hydroxyphenyl retinamide, reference compound]
MDA-MB-231 cells
  IC50: 1400 nM
Cyclin D1
  Decrease of cyclin D1 protein expression compared with untreated control: > 80%
MCF-7 cells [1]
  Induction of apoptosis (TUNEL), MCF-7: 20–25%
T47D cells [2]
  G2/M (%): 16.75±4.39%
  Go/G1 (%): 76.94±3.47%
  S (%): 6.32±0.93%
  Sub-G1 (%): 30.25±6.66%
T47D cells [3]
  Induction of apoptosis (TUNEL), T47D: 20–25%
MCF-7 cells [4]
  IC50: 148 nM
